Source: patent publication EP0288647B1, “Derivatives of 5-[2-(1-pyrrolidinyl)ethoxy]-p-cymene, process for their preparation, and medicaments containing these derivatives” (INSTITUT DE RECHERCHES CHIMIQUES ET BIOLOGIQUES APPLIQUEES …, priority 1987, dated 1988)

Key:
[1] = Acute toxicity, lethal dose 50 after oral and intravenous administration; assay type: in vivo, souris; conditions: mouse; for DL 50 I.V.: intravenous administration; for DL 50 P.O.: oral administration
Text: Les doses létales 50 suivantes ont été obtenues après administration orale (P.O.) et intraveineuse (I.V.) des substances chez la souris.
Les résultats obtenus sont consignés dans le tableau I. TABLEAU I

[2] = tested on: canal déférent isolé du rat; test: In vitro α-adrenolytic activity: antagonism of noradrenaline contractions of isolated rat vas deferens; assay type: cell-based
Text: (§1) Elle a été étudiée sur le canal déférent du rat et sur l'urètre du lapin.
(§2) La noradrénaline provoque des contractions du canal déférent isolé du rat et de l'urètre isolé du lapin. La présence dans le bain de l'organe de substances α-bloquantes antagonise ces contractions : l'utilisation de concentrations croissantes de substances α-bloquantes permet de calculer : • la pA₂ des composés sur le canal déférent du rat; la pA₂ étant le logarithme changé de signe de la concentration molaire du produit en présence de laquelle il faut multiplier par deux la concentration de noradrénaline pour obtenir le même effet qu'en l'absence du produit; • la pD'₂ des composés sur l'urètre du lapin; la pd'₂ étant le logarithme changé de signe de la concentration molaire du produit en présence de laquelle l'activité contracturante de la noradrénaline est divisée par deux.

urètre isolé du lapin = test: In vitro α-adrenolytic activity: antagonism of noradrenaline contractions of isolated rabbit urethra; assay type: cell-based
Text: as §1, §2

[3] = tested on: toxicité de la noradrénaline; test: In vivo adrenolytic activity: protection against death caused by i.v. noradrenaline; conditions: rat, 30 min before noradrenaline 0,4 mg/kg⁻¹ I.V.
Method: La noradrénaline injectée à fortes doses par voie intraveineuse provoque la mort de 100 % des animaux dans les 15 minutes qui suivent son injection. La mort survient par oedème pulmonaire dû à l'hypertension artérielle induite par la stimulation des récepteurs adrénergiques. L'administration préalable de substances α-adrénolytiques par voie orale permet de réduire la toxicité de la noradrénaline. Les produits sont administrés par voie orale à des temps variables entre 30 minutes et 6 heures avant l'injection intraveineuse (I.V.) de noradrénaline (0,4 mg/kg⁻¹).

[4] = tested on: pressions artérielle et urétrale; test: In vivo α-blocking activity at urethral and vascular level: noradrenaline-induced rise of arterial and urethral pressure in the anaesthetised rabbit; design: species or system lapin; conditions: product i.v.
Text: L'activité α-bloquante "in vivo" aux niveaux urétral et vasculaire chez le lapin anesthésié a été recherchée par administration intraveineuse des produits B 1007, B 1024, B 1058, B 1125 et B 1134.
L'injection intraveineuse de noradrénaline provoque chez le lapin une augmentation dose dépendante des pressions artérielle et urétrale. Les substances α-bloquantes injectées par voie intraveineuse antagonisent en fonction des doses ces augmentations de pression. On calcule la dose inhibitrice 50 % (D.I. 50) définie comme étant la dose de produit provoquant une diminution de 50 % des effets de la noradrénaline sur les pressions artérielle et urétrale.

[5] = tested on: hyperpression urétrale neurogène et pression artérielle; test: Urethral specificity in the anaesthetised dog: neurogenic urethral hyperpressure (hypogastric nerve stimulation) and arterial pressure; assay type: in vivo, chien; conditions: product i.v.; for Hypotension artérielle DE. 20: dose causing 20 % arterial hypotension; for Hyperpression urétrale neurogène DI. 50: electrical stimulation of the hypogastric nerve
Text: L'effet des produits B 1007, B 1024, B 1125 et B 1134, injectés par voie intraveineuse sur l'hyperpression urétrale neurogène et sur la pression artérielle, a été recherché chez le chien anesthésié.
La stimulation électrique du nerf hypogastrique provoque une augmentation de la pression urétrale par libération de noradrénaline à partir des fibres sympathiques du nerf.
Les substances α-bloquantes antagonisent en fonction des doses ces augmentations de pression urétrale et provoquent une hypotension artérielle par action bloquante au niveau des récepteurs vasculaires.
On calcule la dose qui inhibe de 50 % (DI. 50) les effets de la stimulation du nerf hypogastrique sur la pression urétrale et la dose qui provoque une hypotension artérielle de 20 % (DE. 20).

CC(=O)Oc1cc(C(C)C)c(OCCN(C)C)cc1C [Thymoxamine, reference compound]
DL 50 I.V. [1]: 72,5 mg/kg⁻¹ | DL 50 P.O. [1]: 300 mg/kg⁻¹ | Action α-bloquante vis-à-vis de la noradrénaline sur canal déférent isolé pA₂ [2]: 7,25 | Action α-bloquante vis-à-vis de la noradrénaline sur urètre isolé pD'₂ (urètre isolé du lapin): 7,03 | % de protection contre la mort ([3]; 50 mg/kg⁻¹ p.o.): 80% | D.I. 50 vis-à-vis de l'hypertension artérielle [4]: 2,72 mg/kg⁻¹ | D.I. 50 vis-à-vis de l'hypertension urétrale [4]: 0,5 mg/kg⁻¹ | Hypotension artérielle DE. 20 [5]: 0,27 mg/kg⁻¹ | Hyperpression urétrale neurogène DI. 50 [5]: 0,09 mg/kg⁻¹

CCCC(=O)Oc1cc(C(C)C)c(OCCN2CCCC2)cc1C.Cl [B 1132, chlorhydrate du butyryloxy-2[(pyrrolidinyl1)-2-éthoxy]-5 p-cymène]
DL 50 P.O. [1]: ≃ 500 mg/kg⁻¹ | Action α-bloquante vis-à-vis de la noradrénaline sur canal déférent isolé pA₂ [2]: 7,35 | Action α-bloquante vis-à-vis de la noradrénaline sur urètre isolé pD'₂ (urètre isolé du lapin): 6,0 | % de protection contre la mort ([3]; 50 mg/kg⁻¹ p.o.): 90%

Cc1cc(OCCN2CCCC2)c(C(C)C)cc1O.Cl [B 1058, chlorhydratede l'hydroxy-2[(pyrrolidinyl-1)-2-éthoxy]-5 p-cymène]
DL 50 I.V. [1]: 17 mg/kg⁻¹ | DL 50 P.O. [1]: 80 mg/kg⁻¹ | Action α-bloquante vis-à-vis de la noradrénaline sur canal déférent isolé pA₂ [2]: 7,18 | Action α-bloquante vis-à-vis de la noradrénaline sur urètre isolé pD'₂ (urètre isolé du lapin): 6,69 | % de protection contre la mort ([3]; 50 mg/kg⁻¹ p.o.): 90% | D.I. 50 vis-à-vis de l'hypertension artérielle [4]: 1,22 mg/kg⁻¹ | D.I. 50 vis-à-vis de l'hypertension urétrale [4]: 0,13 mg/kg⁻¹

Cc1ccc(C(C)C)c(OCCN2CCCC2)c1.Cl [B 1007, chlorhydrate du [(pyrrolidinyl-1)-2-éthoxy]-3 p-cymène]
DL 50 I.V. [1]: 75 mg/kg⁻¹ | DL 50 P.O. [1]: 330 mg/kg⁻¹ | Action α-bloquante vis-à-vis de la noradrénaline sur canal déférent isolé pA₂ [2]: 6,74 | Action α-bloquante vis-à-vis de la noradrénaline sur urètre isolé pD'₂ (urètre isolé du lapin): 6,88 | % de protection contre la mort ([3]; 50 mg/kg⁻¹ p.o.): 60% | D.I. 50 vis-à-vis de l'hypertension artérielle [4]: 7,63 mg/kg⁻¹ | D.I. 50 vis-à-vis de l'hypertension urétrale [4]: 0,34 mg/kg⁻¹ | Hypotension artérielle DE. 20 [5]: 2 mg/kg⁻¹ | Hyperpression urétrale neurogène DI. 50 [5]: 0,35 mg/kg⁻¹

CC(=O)Oc1cc(C(C)C)c(OCCN2CCCC2)cc1C.Cl [B 1024, chlorhydratede l'acétoxy-2[(pyrrolidinyl-1)-2-éthoxy]-5 p-cymène]
DL 50 I.V. [1]: 18 mg/kg⁻¹ | DL 50 P.O. [1]: 100 mg/kg⁻¹ | Action α-bloquante vis-à-vis de la noradrénaline sur canal déférent isolé pA₂ [2]: 6,98 | Action α-bloquante vis-à-vis de la noradrénaline sur urètre isolé pD'₂ (urètre isolé du lapin): 6,38 | % de protection contre la mort ([3]; 25 mg/kg⁻¹ p.o.): 70% | D.I. 50 vis-à-vis de l'hypertension artérielle [4]: 4,14 mg/kg⁻¹ | D.I. 50 vis-à-vis de l'hypertension urétrale [4]: 0,23 mg/kg⁻¹ | Hypotension artérielle DE. 20 [5]: 8 mg/kg⁻¹ | Hyperpression urétrale neurogène DI. 50 [5]: 0,07 mg/kg⁻¹
